According to patent US20230304010A1, “COMPOSITIONS AND METHODS FOR TREATING VIRAL INFECTIONS” (priority 2020, published 2023):
“And” between values parts separate entries of the source, which are not always exact repeats. Equal values may be shown once. Read-outs that look alike come from different tables or passages of the source. Ends that are not written are not given here. Peptide text beside a SMILES is read from it.

Tests used:
[1] = molecular target: ACE2:SARS-CoV-2 Spike interaction (UniProt P0DTC2+Q9BYF1); assay: biochemical; type: binding
[2] = molecular target: SARS-CoV-2 Spike: ACE2 interaction (UniProt P0DTC2+Q9BYF1); assay: biochemical; type: binding
[3] = Nanoparticle formation of peptides with ADGN-106: mean size and polydispersity (Zetasizer); type: physicochemical; settings: 25° C.; for Mean Size (nm): peptide/ADGN-106 complexes; for PI: polydispersity index of peptide/ADGN-106 complexes
Source text: We then tested the ability of the different peptides to form nanoparticle organization in the presence of ADGN-106 or ADGN-100 peptide. […] Peptides were complexed with 5 or 10 molar excess of ADGN-106.

[4] = read-out: ACE2:SARS-CoV-2 Spike IC50
[5] = read-out: SARS-CoV-2 Spike:ACE2 IC50
[6] = IC50, block of ACE2:SARS-CoV-2 Spike interaction
[7] = IC50, block of SARS-CoV-2 Spike: ACE2 interaction

SARS-CoV-2 Spike: ACE2 interaction, sequence (Q9BYF1 18-740, one chain of several): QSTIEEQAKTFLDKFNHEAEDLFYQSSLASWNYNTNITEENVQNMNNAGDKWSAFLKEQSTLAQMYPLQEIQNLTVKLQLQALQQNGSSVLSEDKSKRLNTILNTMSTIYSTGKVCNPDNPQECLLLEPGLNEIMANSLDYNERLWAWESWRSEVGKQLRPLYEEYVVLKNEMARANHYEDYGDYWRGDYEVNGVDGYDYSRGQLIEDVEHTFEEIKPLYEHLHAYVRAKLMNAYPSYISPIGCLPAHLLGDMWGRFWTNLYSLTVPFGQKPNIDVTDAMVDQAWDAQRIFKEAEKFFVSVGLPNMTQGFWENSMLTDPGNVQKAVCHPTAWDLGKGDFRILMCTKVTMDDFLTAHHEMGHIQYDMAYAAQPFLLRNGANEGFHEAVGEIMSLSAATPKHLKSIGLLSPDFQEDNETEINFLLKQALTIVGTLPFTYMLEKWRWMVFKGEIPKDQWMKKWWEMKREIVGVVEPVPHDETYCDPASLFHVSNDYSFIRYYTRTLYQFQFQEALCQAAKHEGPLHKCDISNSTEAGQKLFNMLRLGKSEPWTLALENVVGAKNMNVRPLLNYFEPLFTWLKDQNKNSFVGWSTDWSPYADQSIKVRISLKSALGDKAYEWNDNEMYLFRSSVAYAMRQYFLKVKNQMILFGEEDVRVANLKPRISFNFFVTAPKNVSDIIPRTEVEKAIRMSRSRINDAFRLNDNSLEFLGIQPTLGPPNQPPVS
ACE2:SARS-CoV-2 Spike interaction, sequence (Q9BYF1 18-740, one chain of several): as above

Molecule | IC50 ([1]; ACE2:SARS-CoV-2 Spike IC50) | IC50 ([2]; SARS-CoV-2 Spike:ACE2 IC50) | other results
Ac-K*VGGNYNYK*-Ava-LWRALWRLWRSLWRLLWK-NH2 [Seq13] |  |  | IC50 [1, 4]: > 10 µM; IC50 [2, 5]: > 10 µM
GNYNYLYRL [Seq3] | > 10 µM | > 10 µM | 
Ac-S*KVGGNYNYLY*R-Ava/Ahx-LWRALWRLWRSLWRLLWK-NH2 [Seq12] |  |  | blocked ACE2:SARS-CoV-2 Spike interaction [1]: blocked; Mean Size (nm) [3]: 35.4 ± 5 nm; PI [3]: 0.21
Ac-T*EYQAGSTK*Ava-LWRALWRLWRSLWRLLWK-NH2 [Seq16] |  |  | IC50 [1, 4]: > 10 µM; IC50 [2, 5]: > 1 µM; Mean Size (nm) [3]: 44.2 ± 7 nm; PI [3]: 0.28
CC(C)[C@H](NC(=O)CNC(=O)[C@H](CC(N)=O)NC(=O)[C@@H](N)CS)C(=O)N[C@@H](CCC(=O)O)C(=O)NCC(=O)N[C@@H](Cc1ccccc1)C(=O)N[C@@H](CC(N)=O)C(=O)N[C@@H](CS)C(=O)O [Seq6] (H-CNGVEGFNC-OH) | > 10 µM | > 10 µM | 
Ac-KTFLDKFNHEAEDLFYS [Seq26] | 2.1 µM | 1.9 µM | 
Ac-NMTQGFWENPGGPTAWDLGK [Seq31] | > 10 µM | > 10 µM | IC50 [1, 6]: > 10 µM and 25 µM; IC50 [2, 7]: > 10 µM
Ac-EQAKTFLDKFNHEAEDLF [Seq24] | 0.57 ± 0.03 µM | 1.3 µM | 
STEYQAGST [Seq5] | > 10 µM | > 10 µM | 
CC(C)C[C@H](NC(=O)[C@@H]1CCCN1C(=O)[C@H](Cc1ccccc1)NC(=O)[C@@H](N)Cc1ccc(O)cc1)C(=O)N[C@@H](CCC(N)=O)C(=O)N[C@@H](CO)C(=O)N[C@@H](Cc1ccc(O)cc1)C(=O)NCC(=O)N[C@@H](Cc1ccccc1)C(=O)N[C@@H](CCC(N)=O)C(=O)N1CCC[C@H]1C(=O)N[C@H](C(=O)N[C@@H](CC(N)=O)C(=O)NCC(=O)N[C@H](C(=O)NCC(=O)N[C@@H](Cc1ccc(O)cc1)C(=O)N[C@@H](CCC(N)=O)C(=O)O)C(C)C)[C@@H](C)O [Seq8] | > 10 µM | > 10 µM | 
Ac-KTFLDKFNHEAEDLF [Seq25] | 1.9 µM | 2.5 µM | 
CC(C)C[C@H](NC(=O)[C@H](CCCNC(=N)N)NC(=O)[C@H](Cc1ccc(O)cc1)NC(=O)[C@H](CC(C)C)NC(=O)[C@H](Cc1ccc(O)cc1)NC(=O)[C@H](CC(N)=O)NC(=O)[C@H](Cc1ccc(O)cc1)NC(=O)[C@H](CC(N)=O)NC(=O)CNC(=O)CN)C(=O)N[C@@H](Cc1ccccc1)C(=O)N[C@@H](CCCNC(=N)N)C(=O)N[C@@H](CCCCN)C(=O)O [Seq4] | > 10 µM | > 10 µM | 
Ac-EQAKTFLDKFNHEAEDLFPKWSAFLKEQSTLAQMYG [Seq27] |  |  | folds more potent than SBP-1-ADGN-106/ADGN-106 complex [1]: 6 folds; folds more potent than SBP-1 coupled to ADGN-106 [1]: 6 folds; folds more potent than SBP-1 peptide/ADGN-106 complex [1]: 40 folds; folds more potent than free SBP-1 [1]: 15 folds; folds more potent than SBP-1-ADGN-106/ADGN-106 complex [2]: 4 folds; folds more potent than SBP-1 coupled to ADGN-106 [2]: 3.5 folds; folds more potent than SBP-1 peptide/ADGN-106 complex [2]: 35 folds; folds more potent than free SBP-1 [2]: 7 folds; Mean Size (nm) [3]: 62.1 ± 10 nm; PI [3]: 0.21
GFQPTNGVK [Seq10] | > 10 µM | > 10 µM | 
Ac-V*EGENCYF*Ava-LWRALWRLWRSLWRLLWK-NH2 [Seq18] |  |  | IC50 [1, 4]: > 10 µM; IC50 [2, 5]: > 10 µM
CSCC[C@H](NC(=O)[C@H](CCC(N)=O)NC(=O)[C@H](C)NC(=O)[C@H](CC(C)C)NC(=O)[C@@H](NC(=O)[C@H](CO)NC(=O)[C@H](CCC(N)=O)NC(=O)[C@H](CCC(=O)O)NC(=O)[C@H](CCCCN)NC(=O)[C@H](CC(C)C)NC(=O)[C@H](Cc1ccccc1)NC(=O)[C@H](C)NC(=O)[C@H](CO)NC(=O)[C@H](Cc1c[nH]c2ccccc12)NC(=O)[C@H](CCCCN)NC(=O)[C@@H]1CCCN1C(=O)[C@H](Cc1ccccc1)NC(=O)[C@H](CC(C)C)NC(=O)[C@H](CC(=O)O)NC(=O)[C@H](CCC(=O)O)NC(=O)[C@H](C)NC(=O)[C@H](CCC(=O)O)NC(=O)[C@H](Cc1c[nH]cn1)NC(=O)[C@H](CC(N)=O)NC(=O)[C@H](Cc1ccccc1)NC(=O)[C@H](CCCCN)NC(=O)[C@H](CC(=O)O)NC(=O)[C@H](CC(C)C)NC(=O)[C@H](Cc1ccccc1)NC(=O)[C@@H](NC(=O)[C@H](CCCCN)NC(=O)[C@H](C)NC(=O)[C@H](CCC(N)=O)NC(=O)[C@H](CCC(=O)O)NC(C)=O)[C@@H](C)O)[C@@H](C)O)C(=O)N[C@@H](Cc1ccc(O)cc1)C(=O)NCC(=O)NCCCCCC(=O)N[C@@H](CC(C)C)C(=O)N[C@@H](Cc1c[nH]c2ccccc12)C(=O)N[C@@H](CCCNC(=N)N)C(=O)N[C@@H](C)C(=O)N[C@@H](CC(C)C)C(=O)N[C@@H](Cc1c[nH]c2ccccc12)C(=O)N[C@@H](CCCNC(=N)N)C(=O)N[C@@H](CC(C)C)C(=O)N[C@@H](Cc1c[nH]c2ccccc12)C(=O)N[C@@H](CCCNC(=N)N)C(=O)N[C@@H](CO)C(=O)N[C@@H](CC(C)C)C(=O)N[C@@H](Cc1c[nH]c2ccccc12)C(=O)N[C@@H](CCCNC(=N)N)C(=O)N[C@@H](CC(C)C)C(=O)N[C@@H](CC(C)C)C(=O)N[C@@H](Cc1c[nH]c2ccccc12)C(=O)N[C@@H](CCCCN)C(N)=O [Seq39] | 0.0684 ± 0.01 µM | 0.0552 µM | increase of potency/efficiency by covalent coupling to ADGN peptide [1]: 1.4 folds; Mean Size (nm) [3]: 48.5 ± 5 nm; PI [3]: 0.29
KVGGNYNYL [Seq2] | > 10 µM | > 10 µM | 
CC(=O)N[C@@H](CCCCN)C(=O)N[C@H](C(=O)N[C@@H](Cc1ccccc1)C(=O)N[C@@H](CC(C)C)C(=O)N[C@@H](CC(=O)O)C(=O)N[C@@H](CCCCN)C(=O)N[C@@H](Cc1ccccc1)C(=O)N[C@@H](CC(N)=O)C(=O)N[C@@H](Cc1c[nH]cn1)C(=O)N[C@@H](CCC(=O)O)C(=O)N[C@@H](C)C(=O)N[C@@H](CCC(=O)O)C(=O)N[C@@H](CC(=O)O)C(=O)N[C@@H](CC(C)C)C(=O)N[C@@H](Cc1ccccc1)C(=O)N[C@@H](Cc1ccc(O)cc1)C(=O)N[C@@H](CO)C(=O)NCCCCCC(=O)N[C@@H](CC(C)C)C(=O)N[C@@H](Cc1c[nH]c2ccccc12)C(=O)N[C@@H](CCCNC(=N)N)C(=O)N[C@@H](C)C(=O)N[C@@H](CC(C)C)C(=O)N[C@@H](Cc1c[nH]c2ccccc12)C(=O)N[C@@H](CCCNC(=N)N)C(=O)N[C@@H](CC(C)C)C(=O)N[C@@H](Cc1c[nH]c2ccccc12)C(=O)N[C@@H](CCCNC(=N)N)C(=O)N[C@@H](CO)C(=O)N[C@@H](CC(C)C)C(=O)N[C@@H](Cc1c[nH]c2ccccc12)C(=O)N[C@@H](CCCNC(=N)N)C(=O)N[C@@H](CC(C)C)C(=O)N[C@@H](CC(C)C)C(=O)N[C@@H](Cc1c[nH]c2ccccc12)C(=O)N[C@@H](CCCCN)C(N)=O)[C@@H](C)O [Seq35] | 0.728 µM | 0.546 µM | Mean Size (nm) [3]: 44 ± 10 nm; PI [3]: 0.22
CC[C@H](C)[C@H](NC(=O)[C@H](CCCNC(=N)N)NC(=O)[C@H](Cc1ccccc1)NC(=O)[C@H](CC(=O)O)NC(=O)CNC(=O)[C@H](CCCCN)NC(=O)CNC(=O)[C@H](CC(C)C)NC(=O)[C@H](CC(=O)O)NC(=O)[C@H](Cc1c[nH]c2ccccc12)NC(=O)[C@H](C)NC(=O)[C@@H](NC(C)=O)[C@@H](C)O)C(=O)NCCCCCC(=O)N[C@@H](CC(C)C)C(=O)N[C@@H](Cc1c[nH]c2ccccc12)C(=O)N[C@@H](CCCNC(=N)N)C(=O)N[C@@H](C)C(=O)N[C@@H](CC(C)C)C(=O)N[C@@H](Cc1c[nH]c2ccccc12)C(=O)N[C@@H](CCCNC(=N)N)C(=O)N[C@@H](CC(C)C)C(=O)N[C@@H](Cc1c[nH]c2ccccc12)C(=O)N[C@@H](CCCNC(=N)N)C(=O)N[C@@H](CO)C(=O)N[C@@H](CC(C)C)C(=O)N[C@@H](Cc1c[nH]c2ccccc12)C(=O)N[C@@H](CCCNC(=N)N)C(=O)N[C@@H](CC(C)C)C(=O)N[C@@H](CC(C)C)C(=O)N[C@@H](Cc1c[nH]c2ccccc12)C(=O)N[C@@H](CCCCN)C(N)=O [Seq36] | > 1 µM | > 1 µM | 
TNGVGYQPY [Seq11] | > 1 µM | > 1 µM | 
Ac-NMTQGFWENSMLTD [Seq30] | > 10 µM | > 10 µM | IC50 [1, 6]: > 10 µM; IC50 [2, 7]: > 10 µM
Ac-TAWDLGKGDFRI [Seq29] | > 10 µM | > 10 µM | IC50 [1, 6]: > 10 µM; IC50 [2, 7]: > 10 µM
Ac-G*NYNYLYRL*-Ava-LWRALWRLWRSLWRLLWK-NH2 [Seq14] |  |  | IC50 [1, 4]: > 10 µM; IC50 [2, 5]: > 10 µM
SYGFQPTNGV [Seq9] | > 10 µM | > 10 µM | 
VEGFNCYFP [Seq7] | > 10 µM | > 10 µM | 
CC(C)C[C@H](NC(=O)[C@H](Cc1ccc(O)cc1)NC(=O)[C@H](CC(N)=O)NC(=O)[C@H](Cc1ccc(O)cc1)NC(=O)[C@H](CC(N)=O)NC(=O)CNC(=O)CNC(=O)[C@@H](NC(=O)[C@H](CCCCN)NC(=O)[C@@H](N)CO)C(C)C)C(=O)N[C@@H](Cc1ccc(O)cc1)C(=O)N[C@@H](CCCNC(=N)N)C(=O)O [Seq1] | > 10 µM | > 10 µM | 
